According to patent US20070219186A1, “Pyrazolo[1,5-A]pyrimidine derivatives and methods of use thereof” (priority 2006, published 2007):
Like-named read-outs stand apart in the source and are kept apart here. Values belong to the compound of their own block, whether it stands above or below them.

Biological target: T1, human B-Raf (Homo sapiens, UniProt P15056)
T1 construct: Flag; GST; made in house; host or cells: Sf9 insect cells (B-Raf); E. coli (MEK1-GST)
Experiment: B-Raf Kinase to MEK1 ELISA
Format: biochemical
Settings: for inhibition at 10 µM: read-out: % Inhib./10 uM
Outline: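 Flag/GST-tagged human B-Raf (Sf9, ~20 ng/point) phosphorylates non-active GST-MEK1 (50 nM final) with ATP and MgCl2 in MOPS pH 7.2 buffer, 60 min at RT. Product is captured on anti-GST plates; MEK1 pSer217/221 is read by phospho-antibody plus europium conjugate (DELFIA).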

[1] = median, cpd concentrations from 10 μM to 30 nM in half log dilutions, read-out: Median IC50

T1 sequence (P15056 whole entry): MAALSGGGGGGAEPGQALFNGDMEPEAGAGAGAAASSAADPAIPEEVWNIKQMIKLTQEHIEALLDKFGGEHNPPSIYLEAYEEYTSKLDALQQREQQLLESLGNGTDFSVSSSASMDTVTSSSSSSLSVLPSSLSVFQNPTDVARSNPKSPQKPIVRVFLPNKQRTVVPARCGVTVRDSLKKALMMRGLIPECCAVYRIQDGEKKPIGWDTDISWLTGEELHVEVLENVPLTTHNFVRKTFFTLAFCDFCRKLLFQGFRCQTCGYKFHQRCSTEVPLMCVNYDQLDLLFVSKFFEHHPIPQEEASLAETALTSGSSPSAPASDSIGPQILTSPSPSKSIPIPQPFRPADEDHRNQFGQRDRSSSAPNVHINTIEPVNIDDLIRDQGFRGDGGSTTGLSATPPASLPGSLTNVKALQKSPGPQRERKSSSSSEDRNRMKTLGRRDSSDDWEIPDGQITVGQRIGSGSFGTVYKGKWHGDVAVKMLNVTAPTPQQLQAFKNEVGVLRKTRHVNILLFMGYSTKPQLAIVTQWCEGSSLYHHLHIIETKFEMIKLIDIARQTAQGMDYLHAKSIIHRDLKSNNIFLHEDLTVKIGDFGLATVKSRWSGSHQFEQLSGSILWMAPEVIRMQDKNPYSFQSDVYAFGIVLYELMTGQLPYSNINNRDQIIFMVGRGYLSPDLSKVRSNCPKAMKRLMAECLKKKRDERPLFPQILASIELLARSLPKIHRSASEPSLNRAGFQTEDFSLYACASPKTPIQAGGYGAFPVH

Structure (SMILES): CCOC(=O)c1cnn2c(-c3cccc(NC(=O)Nc4cc(C)on4)c3)ccnc12 [Example 248, ethyl7-[3-({[(5-methylisoxazol-3-yl)amino]carbonyl}amino)phenyl]pyrazolo[1,5-a]pyrimidine-3-carboxylate]
IC50 [1]: > 10000 nM | inhibition at 10 µM: 10%

Structure (SMILES): CCOC(=O)c1cnn2c(-c3cccc(NC(=O)Nc4ccc5c(c4)OCO5)c3)ccnc12 [Example 245, ethyl7-(3-{[(1,3-benzodioxol-5-ylamino)carbonyl]amino}phenyl)pyrazolo[1,5-a]pyrimidine-3-carboxylate]
IC50 [1]: > 10000 nM | inhibition at 10 µM: 18%

Structure (SMILES): CCOC(=O)c1cnn2c(-c3cccc(NC(=O)Nc4ccc(Cl)c(Cl)c4)c3)ccnc12 [Example 40, ethyl 7-[3-({[(3,4-dichlorophenyl)amino]carbonyl}amino)phenyl]pyrazolo[1,5-a]pyrimidine-3-carboxylate]
IC50 [1]: 340 nM | inhibition at 10 µM: 81%

Structure (SMILES): CCOC(=O)c1cnn2c(-c3cccc(NC(=O)Nc4c(C)cc(C)cc4C)c3)ccnc12 [Example 22, ethyl 7-(3-{[(mesitylamino)carbonyl]amino}phenyl)pyrazolo[1,5-a]pyrimidine-3-carboxylate]
IC50 [1]: > 10000 nM | inhibition at 10 µM: 34%

Structure (SMILES): CCOC(=O)c1cnn2c(-c3cccc(NC(=O)c4cccc(OC)c4)c3)ccnc12 [Example 8, ethyl 7-{3-[(3-methoxybenzoyl)amino]phenyl}pyrazolo[1,5-a]pyrimidine-3-carboxylate]
IC50 [1]: > 10000 nM | inhibition at 10 µM (single point assay, 10 uM): 28%

Structure (SMILES): CC(C)(C)OC(=O)NC1CCN(c2cc3nccc(-c4cccc(NC(=O)c5cccc(C(F)(F)F)c5)c4)n3n2)C1 (centres unmarked) [Example 212, tert-butyl {1-[7-(3-{[3-(trifluoromethyl)benzoyl]amino}phenyl)pyrazolo[1,5-a]pyrimidin-2-yl]pyrrolidin-3-yl}carbamate]
IC50 [1]: > 10000 nM | inhibition at 10 µM: 22%

Structure (SMILES): CCOC(=O)c1cnn2c(-c3cccc(NC(=O)c4cnccn4)c3)ccnc12 [Example 214, ethyl7-{3-[(pyrazin-2-ylcarbonyl)amino]phenyl}pyrazolo[1,5-a]pyrimidine-3-carboxylate]
IC50 [1]: > 10000 nM | inhibition at 10 µM: 8%

Structure (SMILES): O=C(Nc1cccc(-c2ccnc3cc(-c4ccncc4)nn23)c1)c1ccc(Cl)c(C(F)(F)F)c1 [Example 129, 4-chloro-N-[3-(2-pyridin-4-ylpyrazolo[1,5-a]pyrimidin-7-yl)phenyl]-3-(trifluoromethyl)benzamide]
IC50: 50 nM | inhibition at 10 µM: 86%

Structure (SMILES): Cc1ccc(C(=O)Nc2cccc(-c3ccnc4c(C#N)c(N5CCNCC5)nn34)c2)cc1C(F)(F)F [Example 68, N-[3-(3-cyano-2-piperazin-1-ylpyrazolo[1,5-a]pyrimidin-7-yl)phenyl]-4-methyl-3-(trifluoromethyl)benzamide]
IC50 [1]: 8400 nM | inhibition at 10 µM: 45%

The next lines start with the values.

IC50 [1]: 380 nM | inhibition at 10 µM: 87%
Structure (SMILES): O=C(Nc1cccc(-c2ccnc3c(-c4cccnc4)cnn23)c1)c1ccc(F)c(C(F)(F)F)c1 [Example 171, 4-fluoro-N-[3-(3-pyridin-3-ylpyrazolo[1,5-a]pyrimidin-7-yl)phenyl]-3-(trifluoromethyl)benzamide]

IC50 [1]: > 10000 nM | inhibition at 10 µM: 35%
Structure (SMILES): O=C(Nc1cccc(-c2ccnc3c(C(=O)Nc4cccnc4)cnn23)c1)c1cccc(C(F)(F)F)c1 [Example 47, N-pyridin-3-yl-7-(3-{[3-(trifluoromethyl)benzoyl]amino}phenyl)pyrazolo[1,5-a]pyrimidine-3-carboxamide]

IC50 [1]: 360 nM | inhibition at 10 µM: 86%
Structure (SMILES): CCOC(=O)c1cnn2c(-c3cccc(NC(=O)c4cccc(C(F)(F)F)c4)c3)c(C)cnc12 [Example 176, ethyl 6-methyl-7-(3-{[3-(trifluoromethyl)benzoyl]amino}phenyl)pyrazolo[1,5-a]pyrimidine-3-carboxylate]

IC50: 1770 nM | inhibition at 10 µM: 53%
Structure (SMILES): COC(=O)c1cccc(-c2cnn3c(-c4cccc(NC(=O)c5cccc(C(F)(F)F)c5)c4)ccnc23)c1 [Example 296, methyl 3-[7-(3-{[3-(trifluoromethyl)benzoyl]amino}phenyl)pyrazolo[1,5-a]pyrimidin-3-yl]benzoate]

IC50 [1]: 19 nM | inhibition at 10 µM: 96%
Structure (SMILES): CN(C)CCCC(=O)Nc1ccc(-c2cnn3c(-c4cccc(NC(=O)c5cccc(C(F)(F)F)c5)c4)ccnc23)cc1 [Example 234, N-{3-[3-(4-{[4-(dimethylamino)butanoyl]amino}phenyl)pyrazolo[1,5-a]pyrimidin-7-yl]phenyl}-3-(trifluoromethyl)benzamide]

IC50 [1]: 2790 nM | inhibition at 10 µM: 78%
Structure (SMILES): CN(CCCN)c1cc(-c2cc3nccc(-c4cccc(NC(=O)c5cccc(C(F)(F)F)c5)c4)n3n2)ccn1 [Example 269, N-[3-(2-{2-[(3-aminopropyl)(methyl)amino]pyridin-4-yl}pyrazolo[1,5-a]pyrimidin-7-yl)phenyl]-3-(trifluoromethyl)benzamide]

IC50 [1]: 1920 nM | inhibition at 10 µM: 60%
Structure (SMILES): O=C(Nc1cccc(-c2ccnc3c(-c4ccncc4)cnn23)c1)c1ccc(Cl)c(C(F)(F)F)c1 [Example 191, 4-chloro-N-[3-(3-pyridin-4-ylpyrazolo[1,5-a]pyrimidin-7-yl)phenyl]-3-(trifluoromethyl)benzamide]

IC50 [1]: > 10000 nM | inhibition at 10 µM: 32%
Structure (SMILES): COC(=O)c1cccc(-c2cc3nccc(-c4cccc(NC(=O)c5cccc(C(F)(F)F)c5)c4)n3n2)c1 [Example 141, methyl 3-[7-(3-{[3-(trifluoromethyl)benzoyl]amino}phenyl)pyrazolo[1,5-a]pyrimidin-2-yl]benzoate]

IC50: 2190 nM | inhibition at 10 µM: 75%
Structure (SMILES): COC(=O)c1ccc(-c2cnn3c(-c4cccc(NC(=O)c5cccc(C(F)(F)F)c5)c4)ccnc23)cc1 [Example 297, methyl 4-[7-(3-{[3-(trifluoromethyl)benzoyl]amino}phenyl)pyrazolo[1,5-a]pyrimidin-3-yl]benzoate]

IC50 [1]: 49 nM | inhibition at 10 µM (single point assay, 10 uM): 93%
Structure (SMILES): CN(C)CC(=O)Nc1ccc(-c2cnn3c(-c4cccc(NC(=O)c5cccc(C(F)(F)F)c5)c4)ccnc23)cc1 [Example 230, N-[3-(3-{4-[(N,N-dimethylglycyl)amino]phenyl}pyrazolo[1,5-a]pyrimidin-7-yl)phenyl]-3-(trifluoromethyl)benzamide]

IC50 [1]: 2060 nM | inhibition at 10 µM: 80%
Structure (SMILES): CN(CCN)c1cc(-c2cc3nccc(-c4cccc(NC(=O)c5cccc(C(F)(F)F)c5)c4)n3n2)ccn1 [Example 270, N-[3-(2-{2-[(2-aminoethyl)(methyl)amino]pyridin-4-yl}pyrazolo[1,5-a]pyrimidin-7-yl)phenyl]-3-(trifluoromethyl)benzamide]

IC50 [1]: 195 nM | inhibition at 10 µM: 80%
Structure (SMILES): CC(O)c1cccc(-c2cnn3c(-c4cccc(NC(=O)c5cccc(C(F)(F)F)c5)c4)ccnc23)c1 (centres unmarked) [Example 304, N-(3-{3-[3-(1-hydroxyethyl)phenyl]pyrazolo[1,5-a]pyrimidin-7-yl}phenyl)-3-(trifluoromethyl)benzamide]

IC50 [1]: 40.7 nM | inhibition at 10 µM: 98%
Structure (SMILES): CN(C)CCc1cccc(-c2cnn3c(-c4cccc(NC(=O)c5cccc(C(F)(F)F)c5)c4)ccnc23)c1 [Example 281, N-[3-(3-{3-[2-(dimethylamino)ethyl]phenyl}pyrazolo[1,5-a]pyrimidin-7-yl)phenyl]-3-(trifluoromethyl)benzamide]
